From patent publication US6844364B2, “Stabilization of retinoid compounds” (Johnson & Johnson Consumer Companies, Inc., priority 2001, dated 2005)

Type: physicochemical
Description: Finsolv® TN is a C12-15 alkyl benzoate from Fintex, Inc. (Elmwood Park, N.J.) Miglyol® 812 from Huls AG (Marl, Germany) and Neobee® 1053 from Stepan Company (Northfield, Ill.) are each a caprylic/capric triglyceride.
The general procedure to prepare the above formulations is as follows. A 500 mg of Compound 1 was weighed and transferred into an 800 ml glass beaker containing 500 g of one of the above carriers. The formulation was then stirred with a paddle mixer (stirrer type RZR50 from Caframo in Wiarton, Ontario, Canada) at 100 RPM setting until the compound was completely dissolved/dispersed in the carrier.
About 20 g each of the resulting formulations were then packed into 24 clear glass scintillation vials of 20 ml volume (Wheaton Disposable Scintillation Vials from Wheaton Scientific in Milleville, N.J.) and labeled. Groups of eight of such vials were then stored at 4° C., RT (22° C.) and/or 40° C. for stability studies.
The samples of the formulations at each of the above three temperatures were then periodically analyzed for the chemical stability of Compound 1. The compound was assayed using high performance liquid chromatographic (HPLC) system. The results of this analysis is set forth in Table 2 setting forth the amount of Compound 1 remaining in the formulation following a certain number of days at specified temperatures.

With `CCCCCc1cc2c(cc1C(=O)Oc1ccc(C(=O)O)cn1)C(C)(C)CCC2(C)C` [Compound I] the “Stabilization of the compound in topical liquid or semisolid pharmaceutical formulations” value was “None of these formulations, however, were capable of sufficiently stabilizing the compound”.
